The values below come from patent US20260078114A1, “COMPOUND USED AS INHIBITOR OF CDK4 KINASE AND USE THEREOF” (TYK MEDICINES, INC., priority 2022, published 2026).

Experiment [1] concerns human mantle cell lymphoma cell JEKO-1. In words: Cellular antiproliferative assay (MTT, 5 days), JEKO-1. The class given is cell-based. The conditions noted are these: JEKO-1 cells, 5 days incubation. The method, then: (§1) Human breast cancer cell MCF-7, ovarian cancer cell A2780, human mantle cell lymphoma cell JEKO-1. DMEM medium (Bio-Channel), DMSO (dimethyl sulfoxide), MTT (thiazolyl blue), 0.25% EDTA-Tripsin (tryptic digest), 1×PBS (phosphate buffer, PH7.2), 96-well plate (Corning), fetal bovine serum (FBS), 10,000 U/mL penicillin-G/streptomycin, high-speed cryo-centrifuge (EPPENDORF 5810R), enzyme-linked immunoassay (Tecan Spark).
(§2) • A) Tumor cells were cultured in DMEM (high sugar with 10% FBS and 100 U/mL penicillin-G/streptomycin) at 37° C., 5% CO2 and saturated humidity until 80-90% dense. • B) Removed the culture medium from 10 cm Petri dishes; • C) Rinsed the cells once with 10 ml 1×PBS; • D) Added 4 ml 0.25% EDTA-Tripsin into 37° C., 5% CO2 incubator for trypsin digestion for 5 minutes, transferred to 15 ml centrifuge tube, centrifuged at 200 g for 5 minutes, discarded the supernatant to get cell precipitate; • E) Resuspended with 4 ml DMEM medium, counted and adjust to 50,000 cells/ml. • F) Added cell suspension to 96-well plate with 100 μL per well volume and incubated overnight at 37° C., 5% CO2 incubator.
(§3) • A) Preparation of gradient dilution solution of the tested compound: the test compound was configured into 1 mM reservoir solution.
(§4) • A) Taking the cell culture plate and adding 10 μL of 5 mg/ml MTT in the biosafety cabinet; • B) Putting the cell culture plate back into the incubator and continued incubation for 3 hours; • C) Taking the cell culture plate and removing the culture medium, adding 100 μL isopropanol (containing 0.4 mM HCl, 0.1% NP-40), and shaking the bed at room temperature for 30 min; and • D) Determining the absorbance value by selecting 570 nm on a TECAN enzyme-linked immunoassay detector.
(§5) The % Cell Viability was calculated using the following formula:
(§6) [formula] • Lum_HC: 0.1% DMSO control cell reading • Lum_Sample: cell readings with compound added • Lum_LC: Blank medium reading

Experiment [2] relates to ovarian cancer cell A2780. In words: Cellular antiproliferative assay (MTT, 5 days), A2780. The conditions noted are these: A2780 cells, 5 days incubation. It counts as cell-based, human. The method, then:
as §1, §2, §3, §4, §5, §6

The test system of experiment [3] is Human breast cancer cell MCF-7. In words: Cellular antiproliferative assay (MTT, 5 days), MCF-7. Conditions: MCF-7 cells, 5 days incubation. It counts as cell-based. The protocol: as §1, §2, §3, §4, §5, §6

A word on the IC50: it is the concentration needed to halve the response being measured.

Where two headings read alike, the source gives them in different places.

`CC(C)n1c(N2CCOC2=O)nc2c(F)cc(-c3nc(Nc4ccc(S(=O)(=O)NCCN(C)C)cc4)nc4[nH]cnc34)cc21` [TB-70]: the IC50 was at most 500 nM in experiment [1] (Homo sapiens, 120 h); at most 500 nM in experiment [2] (Homo sapiens, 120 h); at most 500 nM in experiment [3] (Homo sapiens, MCF7, 120 h).
In the case of `CC(C)n1c(N(C)C)nc2c(F)cc(-c3nc(NC4CCN(S(C)(=O)=O)CC4)ncc3Cl)cc21` [TB-3, 6-(5-chloro-2-((1-(methylsulfonyl)piperidin-4-yl)amino)pyrimidin-4-yl)-4-fluoro-1-isopropyl-N,N-dimethyl-1H-benzo[d]imidazol-2-amine], the IC50 is at most 500 nM in experiment [1] (Homo sapiens, 120 h); at most 500 nM in experiment [2] (Homo sapiens, 120 h); at most 500 nM in experiment [3] (Homo sapiens, MCF7, 120 h).
Consider `CC(C)n1c(N2CCOC2=O)nc2c(F)cc(-c3nc(NC4CCN(S(C)(=O)=O)CC4)ncc3Cl)cc21` [TB-26], for which the IC50 in experiment [1] (Homo sapiens, 120 h) is at most 500 nM; in experiment [2] (Homo sapiens, 120 h) it was at most 500 nM; in experiment [3] (Homo sapiens, MCF7, 120 h), at most 500 nM.
Take `CC(C)n1c(N(C)CCO)nc2c(F)cc(-c3nc(N[C@@H]4CCOC[C@H]4O)ncc3Cl)cc21` [TB-9, (3S,4R)-4-((5-chloro-4-(4-fluoro-2-((2-hydroxyethyl)(methyl)amino)-1-isopropyl-1H-benzo[d]imidazol-6-yl)pyrimidin-2-yl)amino)tetrahydro-2H-pyran-3-ol]: the half-maximal inhibitory concentration (IC50) in experiment [1] (Homo sapiens, 120 h) was at most 500 nM; in experiment [2] (Homo sapiens, 120 h), at most 500 nM; in experiment [3] (Homo sapiens, MCF7, 120 h), 500 to 2000 nM.
Regarding `CC(C)n1c(N(C)C)nc2c(F)cc(-c3nc(N[C@@H]4CCOC[C@H]4O)ncc3Cl)cc21` [TB-1], the IC50 was at most 500 nM in experiment [1] (Homo sapiens, 120 h); at most 500 nM in experiment [2] (Homo sapiens, 120 h); at most 500 nM in experiment [3] (Homo sapiens, MCF7, 120 h).
Turning to `CC(C)n1c(N2CCOC2=O)nc2c(F)cc(-c3nc(NC4CCN(S(=O)(=O)C(C)C)CC4)ncc3Cl)cc21` [TB-32], the IC50 in experiment [1] (Homo sapiens, 120 h) is at most 500 nM; in experiment [2] (Homo sapiens, 120 h), at most 500 nM; in experiment [3] (Homo sapiens, MCF7, 120 h), at most 500 nM.
In the case of `CC(C)n1c(N(C)C)nc2c(F)cc(-c3nc(N[C@@H]4CCN(S(C)(=O)=O)C[C@H]4O)ncc3Cl)cc21` [TB-13, (3R,4R)-4-((5-chloro-4-(2-(dimethylamino)-4-fluoro-1-isopropyl-1H-benzo[d]imidazol-6-yl)pyrimidin-2-yl)amino)-1-(methylsulfonyl)piperidin-3-ol], the IC50 in experiment [1] (Homo sapiens, 120 h) is at most 500 nM; in experiment [2] (Homo sapiens, 120 h) it was at most 500 nM; in experiment [3] (Homo sapiens, MCF7, 120 h) it was at most 500 nM.
With `C[C@H]1CCN(C)c2nc3c(F)cc(-c4cc(N[C@@H]5CCOC[C@H]5O)ncc4Cl)cc3n21` [TB-149], the IC50 in experiment [1], in experiment [2] and in experiment [3] (read-out: MCF7 IC50) was at most 500 nM throughout.
Take `COC(=O)N(C)c1nc2c(F)cc(-c3nc(N[C@@H]4CCOC[C@H]4O)ncc3Cl)cc2n1C(C)C` [TB-8, methyl (6-(5-chloro-2-(((3S,4R)-3-hydroxytetrahydro-2H-pyran-4-yl)amino)pyrimidin-4-yl)-4-fluoro-1-isopropyl-1H-benzo[d]imidazol-2-yl)(methyl)carbamate]: the IC50 in experiment [1] (Homo sapiens, 120 h) was at most 500 nM; in experiment [2] (Homo sapiens, 120 h), at most 500 nM; in experiment [3] (Homo sapiens, MCF7, 120 h), 500 to 2000 nM.
Turning to `CNS(=O)(=O)N1CCC(Nc2ncc(Cl)c(-c3cc(F)c4nc5n(c4c3)CCCN5C)n2)CC1` [TB-144, 4-((5-chloro-4-(9-fluoro-1-methyl-1,2,3,4-tetrahydrobenzo[4,5]imidazo[1,2-a]pyrimidin-7-yl)pyrimidin-2-yl)amino)-N-methylpiperidine-1-sulfonamide], the IC50 is at most 500 nM in experiment [1] (Homo sapiens, 120 h); at most 500 nM in experiment [2] (Homo sapiens, 120 h); at most 500 nM in experiment [3] (Homo sapiens, MCF7, 120 h).
Turning to `CC(C)n1c(N2CCOC2=O)nc2c(F)cc(-c3nc(NC4CCN(S(C)(=O)=O)CC4)ncc3F)cc21` [TB-28], the IC50 in experiment [1] (Homo sapiens, 120 h) was at most 500 nM; in experiment [2] (Homo sapiens, 120 h), at most 500 nM; in experiment [3] (Homo sapiens, MCF7, 120 h) it was at most 500 nM.
Turning to `C[C@@H]1C[C@H](C)n2c(nc3c(F)cc(-c4nc(N[C@@H]5CCOC[C@H]5O)ncc4Cl)cc32)N1C` [TB-154], the IC50 was at most 500 nM in experiment [1] (Homo sapiens, 120 h); at most 500 nM in experiment [2] (Homo sapiens, 120 h); at most 500 nM in experiment [3] (Homo sapiens, MCF7, 120 h).
